In patent US20100209846A1, “NEGATIVE-WORKING IMAGEABLE ELEMENTS” (priority 2009, published 2010):

Experiment: Solubility of contrast dye in water
Format: physicochemical

Structure (SMILES)	Solubility of contrast dye in 1 liter water [g]
CCCCCCC(CCCCCC)c1ccc(/C=C2/C(=C(C#N)C#N)c3ccccc3S2(=O)=O)c(C)c1	0.25
CN(C)c1ccc(C(=C2C=CC(=[N+](C)C)C=C2)c2ccc(N(C)C)cc2)cc1 [Crystal Violet]	4
